Results taken from patent US4798834A, “Optionally substituted (3β-9,10-didehydro-2,3-dihydro ergoline as serotonergic function enhancement” (Eli Lilly and Company, priority 1987, dated 1989).
Entries after “also recorded” stand apart in the source; their conditions may differ.

Tests used:
[1] = molecular target: 5-HT1 receptor; assay: binding to 5-HT1 sites ([3H]serotonin displacement, rat brain frontal cortex); design: species or system rat (Wistar); details: for IC50: 2 nM [3H]serotonin, rat frontal cortex; for Selectivity Ratio: IC50 5HT2 / IC50 5HT1, values greater than 1 indicate selectivity for the 5HT1 receptor
Procedure: All radioactive ligands were obtained from New England Nuclear, Boston, Mass., USA. Specific binding was determined as the difference between total binding and nonspecific binding. Eleven concentrations of each of the compounds tested were used between 0.1 and 10,000 nM. All samples were run in duplicate.

[2] = molecular target: T1, 5-HT2 receptor (Rattus norvegicus, UniProt P14842); assay: binding to 5-HT2 sites ([3H]spiperone displacement, rat brain frontal cortex); design: species or system rat (Wistar)
T1 construct: Rat brain frontal cortex from male Wistar rats; from tissue; host or cells: rat brain frontal cortex (male Wistar), membrane pellet
T1 sequence (P14842 whole entry): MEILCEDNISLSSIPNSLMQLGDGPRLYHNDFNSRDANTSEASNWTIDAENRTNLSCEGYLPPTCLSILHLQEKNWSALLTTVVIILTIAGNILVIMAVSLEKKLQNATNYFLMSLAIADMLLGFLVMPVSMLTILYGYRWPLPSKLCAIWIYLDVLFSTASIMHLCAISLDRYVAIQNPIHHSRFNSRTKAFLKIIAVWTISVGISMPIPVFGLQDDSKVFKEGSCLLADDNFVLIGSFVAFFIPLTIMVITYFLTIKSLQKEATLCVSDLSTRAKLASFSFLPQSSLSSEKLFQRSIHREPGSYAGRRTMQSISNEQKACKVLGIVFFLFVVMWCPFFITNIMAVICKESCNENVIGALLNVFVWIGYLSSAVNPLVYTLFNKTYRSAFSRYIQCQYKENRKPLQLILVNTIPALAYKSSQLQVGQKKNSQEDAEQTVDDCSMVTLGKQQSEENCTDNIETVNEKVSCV
Procedure: The pellet from the frontal cortex homogenates was suspended in 0.05 molar (M) Tris buffer containing 10 micromolar (μM) pargyline and 4 millimolar (mM) Ca^++ to give a final protein concentration of 250-350 microgram (μg) per sample. […] All radioactive ligands were obtained from New England Nuclear, Boston, Mass., USA. Specific binding was determined as the difference between total binding and nonspecific binding. Eleven concentrations of each of the compounds tested were used between 0.1 and 10,000 nM. All samples were run in duplicate.

[3] = system: serum corticosterone; assay: corticosterone concentrations in the serum of rats; type: in vivo, rat (Wistar); details: sc; subcutaneous; rat, 1 h after injection; p<0.05 vs control; read-out: Minimum effective dose increasing serum corticosterone
Procedure: (§1) Male Wistar rate (HSD/[WI]BR) weighing about 150 g were kept in a temperature-controlled (24° C.) and light-controlled room (lights on from 7:00 A.M. to 7:00 P.M.) with food and water freely available. The compounds to be tested were dissolved in dilute hydrochloric acid and injected subcutaneously. Five rats per group were used in each experiment. The rats were decapitated one hour after injection and the brains were excised quickly, frozen on dry ice and stored at -15° C. before analysis. […] See Fuller et al., Biochem. Pharmacol. 1977, 26, 2087 and Perry et al., Soc. Neurosci. Abstr. 1979, 5, 348. Serum corticosterone levels were determined spectrofluorometrically by the method of Solem et al., Scand. J. Clin. Lab. Invest. 1965, 17, suppl. 80, 1.
The minimum effective doses of these same compounds which produced a statistically significant decrease in 5-HIAA concentration and a statistically significant increase in serum corticosterone concentration are shown in Table II. The minimum effective dose is the lowest dose producing significant differences from a control group (p<0.05).

[4] = system: serotonin and 5-HIAA in rat brain; assay: animal or person; type: in vivo, rat (Wistar); details: sc, subcutaneous, 1 h after injection, p<0.05 vs control, read-out: Minimum effective dose suppressing 5-HIAA
Procedure: Male Wistar rate (HSD/[WI]BR) weighing about 150 g were kept in a temperature-controlled (24° C.) and light-controlled room (lights on from 7:00 A.M. to 7:00 P.M.) with food and water freely available. The compounds to be tested were dissolved in dilute hydrochloric acid and injected subcutaneously. Five rats per group were used in each experiment. The rats were decapitated one hour after injection and the brains were excised quickly, frozen on dry ice and stored at -15° C. before analysis. […] Neurosci. Abstr. […] Serum corticosterone levels were determined spectrofluorometrically by the method of Solem et al., Scand. J. Clin. Lab. Invest. […] 80, 1.

[5] = system: 5-hydroxytryptophan in rat hypothalamus; assay: accumulation of 5-hydroxytryptophan in rat hypothalamus (NSD-1015 treated rats); type: in vivo, rat (Wistar); details: for 5-Hydroxytryptophan Concentration in Hypothalamus: NSD-1015 100 mg/kg i.p., mean ± SE, n=5, control 1.92 ± 0.07, significant decrease p<0.01
Procedure: as §1
The protocol previously described for neurochemical determinations was repeated with the following modification. To each of the five rats in the treatment group was administered the amino acid decarboxylase inhibitor m-hydroxybenzylhydrazine (also known as NSD-1015). See Euvard et al., Eur. J. Pharmacol. 1980, 63, 65 and Hamon et al., Arch. Pharmacol. 1976, 294, 99. The NSD-1015 was administered at a dose of 100 mg/kg (intraperitoneal) 30 minutes before decapitation and 30 minutes after the dose of the test compound of Example 1 was given.

Structure (SMILES): CN1C[C@H](CSc2ccccn2)C=C2c3cccc4c3[C@@H](CN4)C[C@H]21 [Example 8, (3β,5β,8β)-9,10-Didehydro-2,3-dihydro-6-methyl-8-(2-pyridylthiomethyl)ergoline]
- IC50 [1]: 0.003 µM
- Selectivity Ratio [1]: 28
- IC50 [2]: 0.11 µM

Structure (SMILES): C=C1C=C2c3cccc4c3[C@@H](CN4)C[C@H]2N(C)C1 [Example 4, (3β)-2,3-Dihydrolysergene]
- IC50 [1]: 0.08 µM
- Selectivity Ratio [1]: 48
- IC50 [2]: 3.82 µM

Structure (SMILES): CCCN1C[C@H](C)C=C2c3cccc4c3[C@@H](CN4)C[C@H]21 [Example 10, (3β,5β,8β)-9,10-Didehydro-2,3-dihydro-8-methyl-6-propylergoline]
- IC50 [1]: 0.24 µM
- IC50 [2]: > 1 µM

Structure (SMILES): C[C@@H]1C=C2c3cccc4c3[C@@H](CN4)C[C@H]2N(C)C1 [Example 1, (3β)-2,3-Dihydrolysergine]
- IC50 [1]: 0.017 µM
- minimal effective dose [3]: 0.1 mg/kg
- IC50 [2]: 1.66 µM
- minimal effective dose [4]: 0.03 mg/kg
- 5-Hydroxytryptophan Concentration in Hypothalamus ([5]; 0.01 mg/kg subcutaneous): 1.64 ± 0.07 nanomoles per gram
- 5-Hydroxytryptophan Concentration in Hypothalamus ([5]; 0.03 mg/kg subcutaneous): 1.19 ± 0.05 nanomoles per gram
- 5-Hydroxytryptophan Concentration in Hypothalamus ([5]; 0.1 mg/kg subcutaneous): 0.73 ± 0.02 nanomoles per gram
- 5-Hydroxytryptophan Concentration in Hypothalamus ([5]; 0.3 mg/kg subcutaneous): 0.71 ± 0.02 nanomoles per gram
- 5-hydroxytryptophan accumulation in the hypothalamus (in words) ([5]; NSD-1015 treated rats, 0.01-0.3 mg/kg subcutaneous): dose related decrease in 5-hydroxytryptophan accumulation; also recorded: Significant effects were detected at all of the doses used
- dose of maximal reduction of serotonin turnover ([5]; NSD-1015 treated rats, subcutaneous): 0.1 mg/kg

Structure (SMILES): CN1C[C@H](CO)C=C2c3cccc4c3[C@@H](CN4)C[C@H]21 [Example 3, (3β)-2,3-Dihydrolysergol]
- IC50 [1]: 0.026 µM
- minimal effective dose [3]: 0.1 mg/kg
- IC50 [2]: 2.65 µM
- minimal effective dose [4]: 1 mg/kg

Structure (SMILES): CSC[C@@H]1C=C2c3cccc4c3[C@@H](CN4)C[C@H]2N(C)C1 [Example 5, (3β,5β,8β)-9,10-Didehydro-2,3-dihydro-6-methyl-8-(methylthiomethyl) ergoline]
- IC50 [1]: 0.02 µM
- Selectivity Ratio [1]: 66
- minimal effective dose [3]: 1 mg/kg
- IC50 [2]: 1.33 µM
- minimal effective dose [4]: 0.1 mg/kg

Structure (SMILES): COC(=O)[C@@H]1C=C2c3cccc4c3[C@@H](CN4)C[C@H]2N(C)C1 [Example 9, (3β)-2,3-Dihydro-methyllysergate]
- IC50 [1]: 0.04 µM
- Selectivity Ratio [1]: 40
- IC50 [2]: 1.62 µM

Structure (SMILES): C[C@H]1C=C2c3cccc4c3[C@@H](CN4)C[C@H]2N(C)C1 [Example 2, (3β)-2,3-Dihydroisolysergine]
- IC50 [1]: 0.02 µM
- Selectivity Ratio [1]: at least 100
- minimal effective dose [3]: 0.003 mg/kg
- IC50 [2]: > 1 µM
- minimal effective dose [4]: 0.001 mg/kg

Structure (SMILES): CN1C[C@H](CSc2ccccc2)C=C2c3cccc4c3[C@@H](CN4)C[C@H]21 [Example 7, (3β,5β,8β)-9,10-Didehydro-2,3-dihydro-6-methyl-8-(phenylthiomethyl) ergoline]
- IC50 [1]: 0.008 µM
- Selectivity Ratio [1]: 26
- IC50 [2]: 0.21 µM

Structure (SMILES): NCCc1c[nH]c2ccc(O)cc12 [serotonin, 5-hydroxytryptamine, reference compound]
- IC50 [1]: 0.004 µM

Structure (SMILES): CN1C[C@H](CC#N)C=C2c3cccc4c3[C@@H](CN4)C[C@H]21 [Example 6, (3β,5β,8β)-9,10-Didehydro-2,3-dihydro-6-methylergoline-8-acetonitrile]
- IC50 [1]: 0.02 µM
- minimal effective dose [3]: 0.1 mg/kg
- IC50 [2]: 2.12 µM
- minimal effective dose [4]: 0.1 mg/kg
